# Experimental data as given in US8658652B2, “Antifolate combinations” (Chelsea Therapeutics, Inc., priority 2010, dated 2014).
# Experiments:
# Assay type in all cases: in vivo
# [1] = test system: developing type II collagen arthritis in rats; assay: Knee histopathology in 17 day rat developing type II collagen arthritis test
# Source text: (§1) Female Lewis rats (n=74) weighing 140-161 grams (mean approximate weight=148 g) on day 0 of the study were obtained from Charles River Laboratories, Inc., Wilmington, Mass. Animals were identified by a distinct number delineating group and animal number. After randomization, all cages were labeled with protocol number, group number, and animal number with appropriate color-coding.
# (§2) Animals were anesthetized with Isoflurane and received subcutaneous/intradermal (SC/ID) injections with […] of Freund's Incomplete Adjuvant (Difco, Detroit, Mich.) containing 2 mg/ml bovine type II collagen (Elastin Products, Owensville, Mo.) at the base of the tail and two sites on the back on days 0 and 6. Dosing was initiated on day 0 of the study (prior to boosting procedures) and continued daily (QD at 24 hour intervals) through day 16. Animals were terminated on day 17. The experimental groups were as follows in Table 1, wherein “CH vehicle” means the vehicle used to deliver the compound CH-4051 without the inclusion of the active compound, and “MTX vehicle” means the vehicle used to deliver methotrexate without the inclusion of the active compound. The terms “QD” and “PO” have the standard meanings in the art—i.e., “once daily” and “by mouth”, respectively.
# (§3) After final body weight measurement on day 17, animals were anesthetized for terminal serum collection (retained), and then euthanized for tissue collection. Hind paws were transected at the level of the medial and lateral malleolus, weighed, and were placed in formalin with knees for potential microscopy. Livers, spleen, and thymus were removed, trimmed, weighed, and discarded.
# (§4) Preserved and decalcified (5% formic acid) ankle and knee joints were cut in half longitudinally (ankles) or in the frontal plane (knees), processed through graded alcohols and a clearing agent, infiltrated and embedded in paraffin, sectioned, and stained with Toluidine Blue (T. blue) by Bolder BioPATH, Inc. associated personnel (HistoTox Labs, Inc.). Tissues from all animals were examined microscopically by a board certified veterinary pathologist, and observations were entered into a computer-assisted data retrieval system.
# (§5) Clinical data for ankle joint diameter were analyzed by determining the area under the curve (AUC). For calculation of AUC, the daily measurement of ankle joints (using a caliper) for each rat were entered into a spreadsheet, and the area between the treatment days after the onset of disease to the termination day was computed. Means for each group were determined and % inhibition from arthritis controls was calculated by comparing values for treated and […] animals. Data were analyzed using a Student's t-test or Mann-Whitney U test (non-parametric). If applicable, data were analyzed again, across all groups, using a one-way analysis of variance (1-way ANOVA) or Kruskal-Wallis test (non-parametric), along with the appropriate multiple comparison post-test. ANOVA was performed using Prism 5.0c software (GraphPad Software, Inc.). Significance for all tests was set at p<0.05. Percent inhibition was calculated using the following formula: […]. The results of the testing are described below in relation to the various, referenced figures. In all cases, n=4 for Normal Controls, and n=10 for the treatment group.
# [2] = Body weight gain in 17 day rat developing type II collagen arthritis test; conditions: vs vehicle treated disease controls
# Source text: as §1
# Animals were anesthetized with Isoflurane and received subcutaneous/intradermal (SC/ID) injections with […] of Freund's Incomplete Adjuvant (Difco, Detroit, Mich.) containing 2 mg/ml bovine type II collagen (Elastin Products, Owensville, Mo.) at the base of the tail and two sites on the back on days 0 and 6. Dosing was initiated on day 0 of the study (prior to boosting procedures) and continued daily (QD at 24 hour intervals) through day 16. Animals were terminated on day 17. […]
# Clinical data for ankle joint diameter were analyzed by determining the area under the curve (AUC). […] Means for each group were determined and % inhibition from arthritis controls was calculated by comparing values for treated and […] animals. Data were analyzed using a Student's t-test or Mann-Whitney U test (non-parametric). If applicable, data were analyzed again, across all groups, using a one-way analysis of variance (1-way ANOVA) or Kruskal-Wallis test (non-parametric), along with the appropriate multiple comparison post-test. […]
# [3] = test system: developing type II collagen arthritis in rats; assay: Ankle diameter (caliper) in 17 day rat developing type II collagen arthritis test; conditions: for Daily ankle diameter reduced toward normal, days of significance: vs vehicle controls; for Ankle diameter AUC reduction toward normal: vs vehicle treated disease controls
# Source text: as §1, §2
# Rats were weighed on days 0, 3, 6, and 9-17 of the study, and caliper measurements of ankles were taken every day beginning on day 9 (or day 0 of arthritis). Ankle caliper measurements were made with Digitrix II micrometer (Fowler & NSK). Baseline measurements were taken using one ankle with values rounded to one-thousandth of an inch. Measurements were confirmed as clinically normal (0.260-0.264 inches) by comparison with historical values for rats based on a range of body weights. Baseline measurements were then applied to both ankles, and these values remained with the animal so long as the ankle was clinically normal with good definition of all the ankle bones and no evidence of inflammation.
# Clinical data for ankle joint diameter were analyzed by determining the area under the curve (AUC). […] Means for each group were determined and % inhibition from arthritis controls was calculated by comparing values for treated and […] animals. Data were analyzed using a Student's t-test or Mann-Whitney U test (non-parametric). If applicable, data were analyzed again, across all groups, using a one-way analysis of variance (1-way ANOVA) or Kruskal-Wallis test (non-parametric), along with the appropriate multiple comparison post-test. […] Percent inhibition was calculated using the following formula: % Change=B/A×100, wherein A is the mean normal (mean disease control), and B is the mean treated (mean disease control). […]
# [4] = test system: developing type II collagen arthritis in rats; assay: Overall effect on developing arthritis parameters, rat type II collagen arthritis; conditions: for Effect on arthritis parameters: alone
# Source text: as §1, §2, §5
# [5] = test system: developing type II collagen arthritis in rats; assay: Ankle histopathology in 17 day rat developing type II collagen arthritis test; conditions: for Ankle histopathology, reduction of summed scores: vs vehicle treated disease controls
# Source text: as §1, §2, §3, §4, §5
# [6] = test system: developing type II collagen arthritis in rats; assay: Knee histopathology in 17 day rat developing type II collagen arthritis test; conditions: 0.2 mg/kg MTX 2X/week PO (Group 6); vs vehicle controls
# [7] = 2.5 mg/kg CH-4051 alone (Group 4), FIG. 19
# [8] = 5 mg/kg CH-4051 daily PO (Group 7)
# [9] = 2.5 mg/kg CH-4051 alone (Group 4), FIG. 11
# [10] = 5 mg/kg CH-4051 alone (Group 7), FIG. 14
# [11] = 0.1 mg/kg methotrexate alone (Group 3), FIG. 18
# [12] = 0.2 mg/kg MTX 2X/week PO (Group 6)
# [13] = 0.1 mg/kg methotrexate alone (Group 3), FIG. 10
# [14] = 0.2 mg/kg methotrexate alone (Group 6), FIG. 13
compound,measurement,setting,value
"C=C(C[C@H](NC(=O)c1ccc(CCc2ccc3nc(N)nc(N)c3c2)cc1)C(=O)O)C(=O)O [CH-4051, (S)-2-{4-[2-(2,4-diamino-quinazolin-6-yl)-ethyl]-benzoylamino}-4-methylene-pentanedioic acid]","Knee bone resorption, photomicrograph of highest summed score in group",[1]; [7],bone resorption
same,"Knee cartilage damage, photomicrograph of highest summed score in group",[1]; [7],moderate
same,"Knee inflammation, photomicrograph of highest summed score in group",[1]; [7],severe
same,"Knee pannus, photomicrograph of highest summed score in group",[1]; [7],mild
same,"Knee inflammation, photomicrograph of highest summed score in group","[1]; 5 mg/kg CH-4051 alone (Group 7), FIG. 22",mild
same,"Knee histopathology, reduction of summed scores","[1]; 5 mg/kg CH-4051 daily PO (Group 7), vs vehicle treated disease controls",92%
same,Body weight gain increase toward normal,[2]; [8],84%
same,"Daily ankle diameter reduced toward normal, days of significance",[3]; [8],significant at days 10-17
same,Ankle diameter AUC reduction toward normal,[3]; [8],81%
same,Effect on developing arthritis parameters,[4]; 2.5 mg/kg CH-4051 (daily doses),"only minimal, non-significant effects"
same,Effect on arthritis parameters,[4]; 5 mg/kg CH-4051 per day,good inhibition of all arthritis parameters
same,"Ankle cartilage damage, photomicrograph of approximate mean summed score",[5]; [9],mild
same,"Ankle inflammation, photomicrograph of approximate mean summed score",[5]; [9],marked
same,"Ankle pannus, photomicrograph of approximate mean summed score",[5]; [9],mild
same,"Ankle cartilage damage, photomicrograph of approximate mean summed score",[5]; [10],minimal
same,"Ankle inflammation, photomicrograph of approximate mean summed score",[5]; [10],mild
same,"Ankle pannus, photomicrograph of approximate mean summed score",[5]; [10],minimal
same,"Ankle histopathology, reduction of summed scores",[5]; [8],75%
"CN(Cc1cnc2nc(N)nc(N)c2n1)c1ccc(C(=O)N[C@@H](CCC(=O)O)C(=O)O)cc1 [MTX, methotrexate]","Knee bone resorption, photomicrograph of highest summed score in group",[1]; [11],bone resorption
same,"Knee cartilage damage, photomicrograph of highest summed score in group",[1]; [11],mild
same,"Knee inflammation, photomicrograph of highest summed score in group",[1]; [11],severe
same,"Knee pannus, photomicrograph of highest summed score in group",[1]; [11],mild
same,"Knee inflammation, photomicrograph of highest summed score in group","[1]; 0.2 mg/kg methotrexate alone (Group 6), FIG. 21",mild
same,Body weight gain increase toward normal,[2]; [12],68%
same,"Daily ankle diameter reduced toward normal, days of significance",[3]; 0.1 mg/kg MTX 2X/week PO (Group 3),significant at day 11
same,Ankle diameter AUC reduction toward normal,[3]; [12],72%
same,Effect on developing arthritis parameters,[4]; 0.1 mg/kg MTX (dosed 2 times per week),"only minimal, non-significant effects"
same,Effect on arthritis parameters,[4]; 0.2 mg/kg MTX twice weekly,good inhibition of all arthritis parameters
same,Knee bone resorption score reduction,[6],95%
same,Knee cartilage damage score reduction,[6],91%
same,Knee pannus score reduction,[6],91%
same,"Ankle histopathology, reduction of summed scores",[5]; 0.1 mg/kg MTX—Group 6 (so in the source),59%
same,"Ankle cartilage damage, photomicrograph of approximate mean summed score",[5]; [13],mild
same,"Ankle inflammation, photomicrograph of approximate mean summed score",[5]; [13],marked
same,"Ankle pannus, photomicrograph of approximate mean summed score",[5]; [13],minimal
same,"Ankle cartilage damage, photomicrograph of approximate mean summed score",[5]; [14],minimal
same,"Ankle inflammation, photomicrograph of approximate mean summed score",[5]; [14],mild
same,"Ankle pannus, photomicrograph of approximate mean summed score",[5]; [14],minimal
